The target in one data set is Trypsin (Homo sapiens, UniProt P07477+P07478+P35030). Put plainly: Inhibition of trypsin (unknown origin) using S-2222 as substrate after 15 mins by spectrophotometry. The class given is protein assay.
Another data set addresses Prothrombin (Homo sapiens, UniProt P00734). The data set is described as follows: Inhibition of thrombin (unknown origin) using S-2238 as substrate after 15 mins by spectrophotometry.
Another data set deals with Coagulation factor X (Homo sapiens, UniProt P00742). Put plainly: Inhibition of factor 10a (unknown origin) using S-2222 as substrate after 15 mins by spectrophotometry.
Chain of Coagulation factor X (P00742 41-179 limits assumed): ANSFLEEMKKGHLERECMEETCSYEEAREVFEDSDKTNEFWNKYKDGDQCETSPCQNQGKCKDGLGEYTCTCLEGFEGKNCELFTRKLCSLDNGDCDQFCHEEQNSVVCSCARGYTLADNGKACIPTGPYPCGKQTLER
Chain of Coagulation factor X (P00742 235-488 limits assumed): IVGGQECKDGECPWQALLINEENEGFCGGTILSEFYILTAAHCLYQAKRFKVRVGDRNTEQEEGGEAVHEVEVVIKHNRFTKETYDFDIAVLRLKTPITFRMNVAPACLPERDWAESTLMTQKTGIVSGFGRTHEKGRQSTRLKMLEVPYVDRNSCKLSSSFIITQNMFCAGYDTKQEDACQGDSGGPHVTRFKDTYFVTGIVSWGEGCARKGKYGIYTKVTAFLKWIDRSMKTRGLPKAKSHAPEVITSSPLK
A short description of data set [1]: Metabolic stability in human plasma assessed as compound remaining at […] after 4 hrs by HPLC analysis. The class given is ADME, cell-free. The note with it: read-out: Stability.

The source of these data is ChEMBL document CHEMBL3132772 (Medchemcomm, 2014).

As for `O=C(NC[C@H]1CN(c2ccc(N3CCC(C(=O)O)CC3)cc2)C(=O)O1)c1ccc(Cl)s1` (mixture of isomers), the Ki on Trypsin was > 100 µM; at Prothrombin, 16.6 µM; on Coagulation factor X, 0.0887 µM.

Regarding `CCOC(=O)C1CCCCN1c1ccc(N2C[C@H](CNC(=O)c3ccc(Cl)s3)OC2=O)cc1` (mixture of isomers), the Ki at Trypsin was > 100 µM; at Prothrombin, 0.353 µM; at Coagulation factor X, 0.0622 µM. The remaining at 4 h in data set [1] stood at 100%.

As for `CCOC(=O)C1CCN(c2ccc(N3C[C@H](CNC(=O)c4ccc(Cl)s4)OC3=O)cc2)C(=O)C1` (mixture of isomers), the Ki on Trypsin is > 100 µM; at Prothrombin, > 100 µM; at Coagulation factor X, 0.0219 µM.

On to `O=C(NC[C@H]1CN(c2ccc(N3CCC(C(=O)O)CC3=O)cc2)C(=O)O1)c1ccc(Cl)s1` (mixture of isomers), for which the results for the Ki at Trypsin, on Prothrombin and at Coagulation factor X were > 100 µM, 69.6 µM and 0.337 µM, respectively.

For the compound `CCOC(=O)C1CCN(c2ccc(N3C[C@H](CNC(=O)c4ccc(Cl)s4)OC3=O)cc2)CC1` (mixture of isomers), the Ki at Trypsin was > 100 µM; on Prothrombin, > 100 µM; on Coagulation factor X, 0.769 µM. Also, the remaining at 4 h in data set [1] was 95%.

Consider `CCOC(=O)C1CCCN(c2ccc(N3C[C@H](CNC(=O)c4ccc(Cl)s4)OC3=O)cc2)C1` (mixture of isomers), for which the Ki is > 100 µM on Trypsin, > 100 µM on Prothrombin and 0.0624 µM at Coagulation factor X.

For `O=C(NC[C@H]1CN(c2ccc(N3CCCC(C(=O)O)C3)cc2)C(=O)O1)c1ccc(Cl)s1` (mixture of isomers), the Ki on Trypsin is > 100 µM; at Prothrombin it was 17.6 µM; on Coagulation factor X, 1.22 µM.
